# From publication PMC3904705, “In vivo monoubiquitination of anaplerotic phosphoenolpyruvate carboxylase occurs at Lys624 in germinating sorghum seeds” (Journal of Experimental Botany, 2013)
# Like-named read-outs stand apart in the source and are kept apart here.
# B1: DeUB-PEPC (in vitro deubiquitinated p107 homotetrameric PEPC of germinating sorghum seeds; CP21) (Sorghum bicolor) (protein)
# chain: MPERHQSIDAQLRLLAPGKVSEDDKLVEYDALLVDRFLDILQDLHGPHLREFVQECYELSAEYENDRDEARLGELGSKLTSLPPGDSIVVASSFSHMLNLANLAEEVQVAQRRRIKLKRGDFADEASAPTESDIEETLKRLVSQLGKSREEVFDALKNQTVDLVFTAHPTQSVRRSLLQKHGRIRNCLRQLYAKDITADDKQELDEALQREIQAAFRTDEIRRTPPTPQDEMRAGMSYFHETIWKGVPKFLRRIDTALKNIGINERLPYNAPLIQFSSWMGGDRDGNPRVTPEVTRDVCLLARMMAANLYFSQIEDLMFELSMWRCSDELRIRADELHRSSKRAAKHYIEFWKQVPPNEPYRVILGDVRDKLYYTRERSRHLLSSGISEIPEEATFTNVEQFLEPLELCYRSLCACGDKPIADGSLLDFLRQVFNFGLALVKLDIRQESDRHTDVLDSITTHLGIGSYAEWSEEKRQDWLLSELRGKRPLFGSDLPQTEETADVLGTFHVLAELPADCFGAYIISMATAPSDVLAVELLQRECHVKQPLRVVPLFEKLADLEAAPAAVARLFSIDWYMNRINGKQEVMIGYSDSGKDAGRLSAAWQMYKAQEELIKVAKHYGVKLTMFHGRGGTVGRGGGPTHLAILSQPPDTIHGSLRVTVQGEVIEHSFGEELLCFRTLQRYTAATLEHGMHPPISPKPEWRALMDEMAVVATKEYRSIVFQEPRFVEYFRSATPETEYGRMNIGSRPSKRKPSGGIESLRAIPWIFAWTQTRFHLPVWLGFGAAIKHIMQKDIRNIHVLKEMYNEWPFFRVTLDLLEMVFAKGDPGIAAVYDKLLVAEDLQSFGEQLRKNYEETKELLLQVAGHKDVLEGDPYLKQRLRLRESYITTLNVCQAYTLKRIRDPSFQVSPQPPLSKEFTDESQPVELVQLNQQSEYAPGLEDTLILTMKGIAAGMQNTG
# notes: p107 homotetramer; not phosphorylated at Ser7
# How the values were obtained:
# [1] = target: T1, DeUB-PEPC (in vitro deubiquitinated p107 homotetrameric PEPC of germinating sorghum seeds; CP21) (Sorghum bicolor, UniProt P29195); test: biochemical; set-up: PEPC activity of purified enzyme with 2 mM metabolite effector at subsaturating 0.1 mM PEP, relative to control; details: pH 7.3, 0.1 mM PEP; for remaining activity at 2000 µM: read-out: % of control remaining
# T1 construct: p107 homotetramer; not phosphorylated at Ser7
# T1 sequence (P29195 1-960): B1 chain
# Experimental: (§1) The impact of various metabolite effectors (2mM each) on the activity of the purified, monoubiquitinated heterotetrameric sorghum seed PEPC (UB-PEPC) versus the in vitro deubiquitinated homotetrameric enzyme (deUB-PEPC) was assessed using suboptimal assay conditions (0.1mM PEP, pH 7.3 and 8.0). With the exception of L-malate, monoubiquitination of germinating sorghum seed PEPC (CP21) exerted little to no influence in the response to the metabolites tested (Supplementary Table S2 at JXB online). […] In addition, the K m(PEP) value of UB-PEPC appeared to be slightly higher than that of deUB-PEPC, although the differences were not statistically significant (Table 1). Similarly, monoubiquitination of COS and harsh hakea Class-1 PEPCs is inhibitory, as it enhances sensitivity to allosteric inhibitors such as L-malate and L-aspartate, while interfering with the enzyme’s ability to bind PEP ([Uhrig et al., 2008]; [Shane et al., 2013]). Apparent K m and IC50 (concentration of inhibitor producing 50% inhibition) values were calculated using a computer kinetics program as previously described ([Tripodi et al., 2005]). All kinetic parameters are the means of three independent experiments and are reproducible to within ±15% (SE) of the mean value. Stock solutions of metabolites were made equimolar with MgCl2 and adjusted to pH 7.5.
# [2] = target: T1, DeUB-PEPC (in vitro deubiquitinated p107 homotetrameric PEPC of germinating sorghum seeds; CP21); test: biochemical; set-up: PEPC activity with 2 mM metabolite at subsaturating 0.1 mM PEP, as per cent of control; details: pH 8.0, 0.1 mM PEP; for remaining activity at 2000 µM: read-out: % of control remaining
# Experimental: as §1
# [3] = target: T2, UB-PEPC (purified monoubiquitinated p110:p107 heterotetrameric PEPC of germinating sorghum seeds; CP21) (Sorghum bicolor, UniProt P29195); test: biochemical; set-up: PEPC activity of purified enzyme with 2 mM metabolite effector at subsaturating 0.1 mM PEP, relative to control; details: pH 7.3, 0.1 mM PEP; read-out: % of control remaining
# T2 construct: native, purified from 48 h germinated seeds, untagged; intact N-terminus, not phosphorylated at Ser7; heterotetramer ~460 kDa of p110 and p107 in equivalent ratio; p110 = p107 monoubiquitinated at Lys624
# T2 sequence (P29195 1-960): B1 chain
# Experimental: as §1
# [4] = target: T2, UB-PEPC (purified monoubiquitinated p110:p107 heterotetrameric PEPC of germinating sorghum seeds; CP21); test: biochemical; set-up: PEPC activity with 2 mM metabolite at subsaturating 0.1 mM PEP, as per cent of control; details: pH 8.0, 0.1 mM PEP; read-out: % of control remaining
# Experimental: as §1
# [5] = target: T1, DeUB-PEPC (in vitro deubiquitinated p107 homotetrameric PEPC of germinating sorghum seeds; CP21); test: spectrophotometric, NADH at […] nm, coupled with malate dehydrogenase; assay type: biochemical; details: read-out: pH 7.3 / DeUB-PEPC
# [6] = target: p107, non-ubiquitinated 107 kDa plant-type PEPC (PTPC) subunit encoded by sorghum CP21 (Sorghum bicolor (endogenous in germinated seeds)) (UniProt P29195); test: SEC; Superdex-200 HR 16/60 gel filtration FPLC (calibrated column) of native PEPC purified from 48 h germinated sorghum seeds, in buffer E (50 mM HEPES-KOH pH 8.0, 5 mM MgCl2, 1 mM DTT, 20% glycerol, 100 mM KCl, phosphatase inhibitors); fractions immunoblotted with anti-COS PTPC; native molecular mass estimated as ~460 kDa
# [7] = substrate: C=C(OP(=O)(O)O)C(=O)O; test: purified protein; assay type: biochemical, Sorghum bicolor; details: pH 8.0, 25 °C, 5 mM NaHCO3, 5 mM MgCl2, apparent Km, deubiquitinated enzyme
Molecule,remaining activity at 2000 µM [1] [%],remaining activity at 2000 µM [3] [%],remaining activity at 2000 µM [2] [%],remaining activity at 2000 µM [4] [%],further results
Nc1ncnc2c1ncn2[C@@H]1O[C@H](COP(=O)(O)OP(=O)(O)OP(=O)(O)O)[C@@H](O)[C@H]1O [ATP],,,,,% of control remaining ([1]; 2000 µM): 88%; % of control remaining ([2]; 2000 µM): 111%
N[C@@H](CC(=O)O)C(=O)O [Aspartate],91,94,109,109,
O=P(O)(O)OC[C@H]1OC(O)[C@H](O)[C@@H](O)[C@@H]1O (stereo partly shown) [Glc-6-P],112,127,120,121,
O=C(O)C[C@H](O)C(=O)O [L-malate],67,53,,,IC50 [5]: 3620 ± 240 µM
"p110, 110 kDa plant-type PEPC (PTPC) subunit encoded by sorghum CP21, monoubiquitinated at Lys624 (from UniProt P29195 1-960) (enzyme)",,,,,stoichiometry N (subunits in the oligomer) [6]: 4
O=P(O)(O)OCC(O)CO (stereo not shown) [Glycerol-3-P],108,107,120,124,
O=C(O)C[C@H](C(=O)O)[C@@H](O)C(=O)O [isocitrate],47,47,38,38,IC50 [5]: 1370 ± 120 µM
O=P(O)(O)OC1O[C@H](CO)[C@@H](O)[C@H](O)[C@H]1O (stereo partly shown) [Glc-1-P],111,115,116,116,
O=C[C@H](O)[C@H](O)[C@H](O)COP(=O)(O)O [Ribose-5-P],98,98,105,105,
O=C(O)CC(O)C(=O)O (stereo not shown) [Malate],,,93,93,
B1,,,,,Km [7]: 36 ± 5 µM
